Assay [1] has as its system endogenous dehydrogenases. The assay is described as follows: Emit Ethyl Alcohol Assay with inhibitor, serum samples falsely elevated by endogenous dehydrogenases. The assay is classed as biochemical. The note with it: inhibitor in Reagent 1. How it is done: (§1) (Part No. 9K219). The assays were performed on the Cobas Mira-S analyzer (Roche Diagnostics Inc., Nutley, N.J.) according to the manufacturer's instructions using the protocol provided by Syva Company. Briefly, the Emit® Ethyl Alcohol Assay consists of two reagents, Reagent 1 and Reagent 2. Reagent 1 contains Tris buffer, stabilizers and preservatives. Reagent 2 contains alcohol dehydrogenase, nicotinamide adenine dinucleotide (NAD^+), bulking agents, stabilizers, surfactants and preservatives. Reagent 2 is shipped in dry form and is reconstituted according to the manufacturer's instructions. To perform the assay, Reagent 1 and Reagent 2 %ere added to the sample. Following mixing and incubation, the change in absorbance at 340 nm was monitored. The reaction is linear, and calibration was achieved by single point calibration using a 100 mg/dL (0.10%) calibrator, supplied by Syva Company. The calculation of results was not required. The instrument prints the quantitative result.
Results reported under the column GC refer to confirmatory results obtained using gas chromatography.
Agaric acid was dissolved in Emit® Ethyl Alcohol Reagent 1 by stirring with heat to a concentration of 25 mM. […] The solution was cooled to room temperature. The pH of the solution was measured and adjusted to the pH of the Emit® Ethyl Alcohol Reagent 1 (pH 9.0) with a small volume of 10N NaOH. […] These discrepant samples were analyzed using the Emit® Ethyl Alcohol Assay side by side with the assay containing agaric acid.

Assay [2] relates to α-glycerophosphate dehydrogenase. As to conditions: Bacchi et al., J. Bacteriol. 98(1), 23-28 (1969); cited from earlier work.
The subject of assay [3] is endogenous dehydrogenases. The assay is described as follows: Emit Ethyl Alcohol Assay with inhibitor, whole blood samples. Format: biochemical. The note with it: whole blood ethanol samples. As to the method:
as §1, with “The ability of inhibitors to prevent false positive results with samples containing endogenous dehydrogenases was determined by employing the Emit® Ethyl Alcohol Assay available from Syva Company, San Jose, Calif. (Part” for “(Part”
In the following examples, results reported under the column Current Emit® refer to results observed using the Emit® Ethyl Alcohol assay in the absence of inhibitor. […]

The next assay concerns malate dehydrogenase. As to conditions: Bacchi et al., J. Bacteriol. 98(1), 23-28 (1969); cited from earlier work.

Take `CCCCCCCCCCCCCCCCC(C(=O)O)C(O)(CC(=O)O)C(=O)O` (centres unmarked) [Agaric Acid, Agaric acid]: the “Effect on elevated (false-positive) ethanol results of the Emit Ethyl Alcohol Assay” value in assay [1] was “eliminated”. For the same compound, in assay [2], the “Inhibition of α-glycerophosphate dehydrogenase” value was “highly inhibitory”. Moreover, the “Accuracy of the Emit Ethyl Alcohol Assay versus current Emit product” value in assay [3] is on record as “improved accuracy”. In the assay on malate dehydrogenase, the “Inhibition of malate dehydrogenase” value is “highly inhibitory”.
On to `CCCCCCCCCCCC(=O)O` [Lauric Acid, Lauric acid], for which the “Effect on elevated (false-positive) ethanol results of the Emit Ethyl Alcohol Assay” value in assay [1] is on record as “eliminated”.
Still for that read-out and setting: in the case of `CCCC/C=C\CCCCCCCC(=O)O` [Myristoleic Acid, myristoleic acid] it was “eliminated”; in that of `CCCCCCCCCCCCOS(=O)(=O)[O-].[Na+]` [SDS, sodium dodecyl sulfate], “eliminated”; in that of `CCCCCCCCCCOS(=O)(=O)[O-].[Na+]` [Sodium Decyl Sulfate, sodium decyl sulfate], “eliminated”.

The record behind these values is patent US5861269A, “Methods for removing interferences due to endogenous dehydrogenases in enzyme assays” (Dade Behring Marburg GmbH, priority 1996, dated 1999).
